Laboratory results reported in patent US10766865B2, “PKM2 modulators and methods for their use” (TOLERO PHARMACEUTICALS, INC., priority 2012, dated 2020).
Like-named read-outs stand apart in the source and are kept apart here.

Biological target: PKM2 (Homo sapiens, UniProt P14618)
Test: PKM2 Biochemical Assay
Conditions: for Max. Resp.: % maximum response in a biochemical assay as compared with Fructose 1,6-bisphosphate
[1] = read-out: PKM2 AC50, 2 nM PKM2, 75 μM ADP, 15 μM PEP, Kinase Glo

PKM2, sequence (P14618 whole entry): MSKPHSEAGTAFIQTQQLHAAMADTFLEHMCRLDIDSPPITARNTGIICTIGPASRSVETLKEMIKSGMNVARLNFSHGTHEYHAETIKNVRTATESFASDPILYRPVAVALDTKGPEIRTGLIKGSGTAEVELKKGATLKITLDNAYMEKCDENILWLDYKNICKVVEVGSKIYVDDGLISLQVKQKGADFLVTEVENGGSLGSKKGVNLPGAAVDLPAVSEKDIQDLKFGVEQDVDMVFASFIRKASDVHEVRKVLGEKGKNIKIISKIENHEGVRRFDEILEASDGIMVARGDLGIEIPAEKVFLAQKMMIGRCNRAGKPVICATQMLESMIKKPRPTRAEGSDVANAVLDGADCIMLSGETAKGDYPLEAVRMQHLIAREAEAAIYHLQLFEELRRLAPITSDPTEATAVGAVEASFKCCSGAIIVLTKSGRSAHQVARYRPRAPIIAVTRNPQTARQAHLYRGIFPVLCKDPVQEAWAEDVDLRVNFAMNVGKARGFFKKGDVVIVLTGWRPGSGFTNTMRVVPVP

| SMILES | Max. Resp. [%] | AC50 [µM] | AC50 [1] [µM] |
| --- | --- | --- | --- |
| N#Cc1cc(C(=O)N(Cc2ccc(O)cc2F)CC2CCC2)[nH]n1 [Example 2, 3-CYANO-N-(CYCLOBUTYLMETHYL)-N-(2-FLUORO-4-HYDROXYBENZYL)-1H-PYRAZOLE-5-CARBOXAMIDE] | 39 |  |  |
| Nc1cc(C(=O)N(Cc2ccc(O)cc2F)CC2CCC2)[nH]n1 [Example 3, 3-amino-N-(cyclobutylmethyl)-N-(2-fluoro-4-hydroxybenzyl)-1H-pyrazole-5-carboxamide] | 45 |  |  |
| CC(c1ccccc1)N(CC1CCC1)C(=O)c1cc(Br)n[nH]1 (stereo not shown) [Example 4, 3-bromo-N-(cyclobutylmethyl)-N-(1-phenylethyl)-1H-pyrazole-5-carboxamide] | 52 | 1.48 |  |
| CC(c1ccccc1)N(CC1CCC1)C(=O)c1cc(C(F)(F)F)n[nH]1 (stereo not shown) [Example 5, 3-trifluoromethyl-N-(cyclobutylmethyl)-N-(1-phenylethyl)-1H-pyrazole-5-carboxamide] | 106 |  |  |
| O=C(c1cc(C(F)(F)F)n[nH]1)N(Cc1cccc2[nH]ccc12)CC1CCC1 [Example 6, N-((1H-indol-4-yl)methyl)-N-(cyclobutylmethyl)-3-(trifluoromethyl)-1H-pyrazole-5-carboxamide] | 100 |  | 0.213 |
| O=C(c1cc(Cl)n[nH]1)N(Cc1cccc2[nH]c(=O)sc12)CC1CCC1 [Example 9, 3-Chloro-N-(cyclobutylmethyl)-N-((2-oxo-2,3-dihydrobenzo[d]thiazol-7-yl)methyl)-1H-pyrazole-5-carboxamide] | 80 |  |  |
| O=C(c1cc(Br)n[nH]1)N(Cc1cccc2[nH]c(=O)sc12)CC1CCC1 [Example 10, 3-bromo-N-(cyclobutylmethyl)-N-((2-oxo-2,3-dihydrobenzo[d]thiazol-7-yl)methyl)-1H-pyrazole-5-carboxamide] | 127 |  |  |
| O=C(c1cc(Br)n[nH]1)N(Cc1ccc(O)cc1F)CC1CNC1 [Example 11, N-(azetidin-3-ylmethyl)-3-bromo-N-(2-fluoro-4-hydroxybenzyl)-1H-pyrazole-5-carboxamide] | 61 |  |  |
| O=C(c1cc(C(F)(F)F)n[nH]1)N(Cc1cccc2[nH]ccc12)CC1COC1 [Example 12] | 101 |  |  |
| CC(C)(C)CN(Cc1cccc2[nH]ccc12)C(=O)c1cc(C(F)(F)F)n[nH]1 [Example 13] | 33 |  |  |
| O=C(c1cc(C(F)(F)F)n[nH]1)N(Cc1cccc2c1CCN2)CC1CCC1 [Example 14, N-(cyclobutylmethyl)-N-(indolin-4-ylmethyl)-3-(trifluoromethyl)-1H-pyrazole-5-carboxamide] | 81 |  | 1.7 |
| O=C(c1cc(C(F)(F)F)n[nH]1)N(Cc1ccc(O)cc1F)CC1COC1 [Example 15] | 102 |  |  |
| CCCC(C)N(Cc1ccccc1)C(=O)c1cc(C(F)(F)F)n[nH]1 (stereo not shown) [Example 16] | 22 |  |  |
| O=C(c1cc(C(F)(F)F)n[nH]1)N(Cc1ccccc1F)CC1COC1 [Example 20] | 70 |  |  |
| CCOCCN(Cc1ccc(O)cc1F)C(=O)c1cc(C(F)(F)F)n[nH]1 [Example 24] | 100 |  |  |
| O=C(c1cc(C(F)(F)F)n[nH]1)N(Cc1ccccc1F)c1ncco1 [Example 25] | 35 |  |  |
| O=C(c1cc(C(F)(F)F)n[nH]1)N(CCC1CCOC1)Cc1c(Cl)cccc1Cl (stereo not shown) [Example 33] | 81 |  |  |
| O=C(c1cc(C(F)(F)F)n[nH]1)N(CCC1CCOC1)Cc1ccc(O)cc1F (stereo not shown) [Example 34] | 109 |  |  |
| O=C(c1cc(C(F)(F)F)n[nH]1)N(CCC1CCOC1)Cc1c(F)cccc1F (stereo not shown) [Example 40] | 114 |  |  |
| O=C(c1cc(C(F)(F)F)n[nH]1)N(CCC1CCOCC1)Cc1ccccc1F [Example 41] | 118 |  |  |
| O=C(c1cc(C(F)(F)F)n[nH]1)N(Cc1ccccc1F)CC1CCOCC1 [Example 45] | 52 |  |  |
| CO[C@H]1CC[C@H](N(Cc2cccc(F)c2)C(=O)c2cc(C(F)(F)F)n[nH]2)CC1 [Example 48] | 80 |  |  |

| SMILES | Max. Resp. [%] | AC50 [µM] | AC50 [1] [µM] |
| --- | --- | --- | --- |
| CO[C@H]1CC[C@H](N(Cc2c(F)cccc2F)C(=O)c2cc(C(F)(F)F)n[nH]2)CC1 [Example 49] | 122 |  |  |
| CO[C@H]1CC[C@H](N(Cc2cc(F)ccc2F)C(=O)c2cc(C(F)(F)F)n[nH]2)CC1 [Example 50] | 90 |  |  |
| CO[C@H]1CC[C@H](N(Cc2cc(F)cc(F)c2)C(=O)c2cc(C(F)(F)F)n[nH]2)CC1 [Example 51] | 31 |  |  |
| CCO[C@H]1CC[C@H](N(Cc2ccccc2F)C(=O)c2cc(C(F)(F)F)n[nH]2)CC1 [Example 55] | 101 |  |  |
| CO[C@H]1CC[C@H](N(Cc2ncccc2Cl)C(=O)c2cc(C(F)(F)F)n[nH]2)CC1 [Example 56] | 48 |  |  |
| O=C(c1cc(C(F)(F)F)n[nH]1)N(CCC1CCC2(CC1)OCCO2)Cc1ccccc1F [Example 59, N-(2-(1,4-dioxaspiro[4.5]decan-8-yl)ethyl)-N-(2-fluorobenzyl)-3-(trifluoromethyl)-1H-pyrazole-5-carboxamide] | 100 |  |  |
| O=C1CCC(CCN(Cc2ccccc2F)C(=O)c2cc(C(F)(F)F)n[nH]2)CC1 [Example 60, N-(2-fluorobenzyl)-N-(2-(4-oxocyclohexyl)ethyl)-3-(trifluoromethyl)-1H-pyrazole-5-carboxamide] | 105 |  |  |
| O=C(c1cc(C(F)(F)F)n[nH]1)N(CCC1CCS(=O)(=O)C1)Cc1ccccc1F (stereo not shown) [Example 63] | 87 |  |  |
| O=C(c1cc(C(F)(F)F)n[nH]1)N(CCC1CCS(=O)(=O)C1)Cc1c(Cl)cccc1Cl (stereo not shown) [Example 64] | 71 |  |  |
| O=C(c1cc(C(F)(F)F)n[nH]1)N(CCC1CCS(=O)(=O)C1)Cc1c(F)cccc1F (stereo not shown) [Example 66] | 102 |  |  |
| O=C(c1cc(C(F)(F)F)n[nH]1)N(CCC1CCS(=O)(=O)C1)Cc1cccc(F)c1 (stereo not shown) [Example 67] | 95 |  |  |
| O=C(c1cc(C(F)(F)F)n[nH]1)N(CCC1CCS(=O)(=O)C1)Cc1cccc(F)c1F (stereo not shown) [Example 68] | 103 |  |  |
| O=C(c1cc(C(F)(F)F)n[nH]1)N(CCC1CCS(=O)(=O)C1)Cc1cc(F)cc(F)c1 (stereo not shown) [Example 69] | 74 |  |  |
| O=C(c1cc(C(F)(F)F)n[nH]1)N(CCC1CCS(=O)(=O)C1)Cc1cc(F)ccc1F (stereo not shown) [Example 70] | 91 |  |  |
| O=C(c1cc(C(F)(F)F)n[nH]1)N(Cc1ccccc1F)CC1CCS(=O)(=O)CC1 [Example 71] | 71 |  |  |
| O=C(c1cc(C(F)(F)F)n[nH]1)N(CCC1CCS(=O)(=O)C1)Cc1ccc(O)cc1F (stereo not shown) [Example 76] | 93 |  |  |
| Nc1ccccc1CN(CCC1CCS(=O)(=O)C1)C(=O)c1cc(C(F)(F)F)n[nH]1 (stereo not shown) [Example 77] | 43 |  |  |
| O=C(c1cc(C(F)(F)F)n[nH]1)N(CCC1CCSCC1)Cc1ccccc1F [Example 79] | 95 |  |  |
| O=C(c1cc(Cl)n[nH]1)N(CCC1CCSCC1)Cc1ccccc1F [Example 80] | 46 |  |  |
| O=C(c1cc(Cl)n[nH]1)N(CCC1CCS(=O)(=O)CC1)Cc1ccccc1F [Example 81] | 72 |  |  |
| O=C(c1cc(Br)n[nH]1)N(CCC1CCSCC1)Cc1ccccc1F [Example 82] | 74 |  |  |

Continued, values first:

| Max. Resp. [%] | AC50 [µM] | AC50 [1] [µM] | SMILES |
| --- | --- | --- | --- |
| 76 |  |  | CCCCCN(Cc1ccccc1)C(=O)c1cc(C(F)(F)F)n[nH]1 [Example 19] |
| 75 |  |  | COCCCN(Cc1ccccc1F)C(=O)c1cc(C(F)(F)F)n[nH]1 [Example 23] |
| 99 |  |  | O=C(c1cc(C(F)(F)F)n[nH]1)N(CCC1CCOC1)Cc1ccccc1F (stereo not shown) [Example 26] |
| 47 |  |  | O=C(c1cc(C(F)(F)F)n[nH]1)N(Cc1ccccc1Cl)CC1COC1 [Example 27] |
| 87 | 4.64 |  | COCCCN(Cc1ccccc1Cl)C(=O)c1cc(C(F)(F)F)n[nH]1 [Example 29] |
| 72 | 9.77 |  | COCCCN(Cc1ccccc1F)C(=O)c1cc(C(F)(F)F)n[nH]1 [Example 30] |
| 82 |  |  | COCCCN(Cc1ccccc1Cl)C(=O)c1cc(C(F)(F)F)n[nH]1 [Example 31] |
| 107 |  |  | O=C(c1cc(C(F)(F)F)n[nH]1)N(CCC1CCOCC1)Cc1ccccc1Cl [Example 32] |
| 59 |  |  | O=C(c1cc(C(F)(F)F)n[nH]1)N(Cc1ccccc1Cl)C1CCOCC1 [Example 35] |
| 88 |  |  | O=C(c1cc(C(F)(F)F)n[nH]1)N(CCC1CCCOC1)Cc1ccccc1Cl (stereo not shown) [Example 36] |
| 37 |  |  | CC(C)OCCN(Cc1ccccc1Cl)C(=O)c1cc(C(F)(F)F)n[nH]1 [Example 37] |
| 47 |  |  | CCOCCCN(Cc1ccccc1Cl)C(=O)c1cc(C(F)(F)F)n[nH]1 [Example 38] |
| 30 |  |  | O=C(c1cc(C(F)(F)F)n[nH]1)N(CCOC1CCCC1)Cc1ccccc1F [Example 39] |
| 76 |  |  | CCOCCN(Cc1c(Cl)cccc1Cl)C(=O)c1cc(C(F)(F)F)n[nH]1 [Example 42] |
| 110 |  |  | O=C(c1cc(C(F)(F)F)n[nH]1)N(CCC1CCOC1)Cc1ccccc1Cl (stereo not shown) [Example 43] |
| 32 |  |  | O=C(c1cc(C(F)(F)F)n[nH]1)N(CCC1CCCCO1)Cc1ccccc1Cl (stereo not shown) [Example 44] |
| 70 |  |  | O=C(c1cc(C(F)(F)F)n[nH]1)N(CCC1CCCO1)Cc1ccccc1F (stereo not shown) [Example 46] |
| 100 |  |  | CO[C@H]1CC[C@H](N(Cc2ccccc2Cl)C(=O)c2cc(C(F)(F)F)n[nH]2)CC1 [Example 52] |
| 63 |  |  | CC(C)O[C@H]1CC[C@H](N(Cc2ccccc2Cl)C(=O)c2cc(C(F)(F)F)n[nH]2)CC1 [Example 53] |
| 22 |  |  | O=C(c1cc(C(F)(F)F)n[nH]1)N(Cc1ccccc1Cl)CC1CCS(=O)(=O)CC1 [Example 72] |
| 79 |  |  | O=C(c1cc(C(F)(F)F)n[nH]1)N(CCC1CCSCC1)Cc1ccccc1Cl [Example 73, N-(2-chlorobenzyl)-N-(2-(tetrahydro-2H-thiopyran-4-yl)ethyl)-3-(trifluoromethyl)-1H-pyrazole-5-carboxamide] |
| 95 |  |  | O=C(c1cc(C(F)(F)F)n[nH]1)N(CCC1CC[S+]([O-])CC1)Cc1ccccc1Cl (stereo not shown) [Example 74, N-(2-CHLOROBENZYL)-N-(2-(1-OXIDOTETRAHYDRO-2H-THIOPYRAN-4-YL)ETHYL)-3-(TRIFLUOROMETHYL)-1H-PYRAZOLE-5-CARBOXAMIDE] |
